According to publication PMC9506414, “Novel 2,6,9-Trisubstituted Purines as Potent CDK Inhibitors Alleviating Trastuzumab-Resistance of HER2-Positive Breast Cancers” (Pharmaceuticals, 2022):

What was measured:
Test in all cases: Kinome-wide inhibition profiling
Format in all cases: biochemical
[1] = target: T1, LIMK2 (Homo sapiens, UniProt P53671)
T1 construct: purchased Reaction Biology Corp
Protocol: (§1) In vitro CDK12/cyclinK assays for all compounds and in vitro kinome-wide inhibition profiling of 30d at 10 μM were performed by a CRO company (Reaction Biology Corp., San Diego, CA, USA).

[2] = target: T2, TYK2 (Homo sapiens, UniProt P29597)
T2 construct: purchased Reaction Biology Corp
Protocol: as §1

[3] = target: T3, YANK2 (Homo sapiens, UniProt Q9NY57)
T3 construct: purchased Reaction Biology Corp
Protocol: as §1

[4] = target: T4, RET (Homo sapiens, UniProt P07949)
T4 construct: purchased Reaction Biology Corp
Protocol: as §1

[5] = target: T5, AKT1 (Homo sapiens, UniProt P31749)
T5 construct: purchased Reaction Biology Corp
Protocol: as §1

[6] = target: T6, DCAMKL2 (Homo sapiens, UniProt Q8N568)
T6 construct: purchased Reaction Biology Corp
Protocol: as §1

[7] = target: T7, DAPK2 (Homo sapiens, UniProt Q9UIK4)
T7 construct: purchased Reaction Biology Corp
Protocol: as §1

[8] = target: T8, IKK-epsilon (Homo sapiens, UniProt Q14164)
T8 construct: purchased Reaction Biology Corp
Protocol: as §1

[9] = target: T9, OSR1 (Homo sapiens, UniProt O95747)
T9 construct: purchased Reaction Biology Corp
Protocol: as §1

[10] = target: T10, MEKK6 (Homo sapiens, UniProt O95382)
T10 construct: purchased Reaction Biology Corp
Protocol: as §1

[11] = target: T11, PKA (Homo sapiens, UniProt P17612)
T11 construct: purchased Reaction Biology Corp
Protocol: as §1

[12] = target: T12, FMS (Homo sapiens, UniProt P07333)
T12 construct: purchased Reaction Biology Corp
Protocol: as §1

[13] = target: T13, SRPK2 (Homo sapiens, UniProt P78362)
T13 construct: purchased Reaction Biology Corp
Protocol: as §1

[14] = target: T14, IGF1R (Homo sapiens, UniProt P08069)
T14 construct: purchased Reaction Biology Corp
Protocol: as §1

[15] = target: T15, LATS2 (Homo sapiens, UniProt Q9NRM7)
T15 construct: purchased Reaction Biology Corp
Protocol: as §1

[16] = target: T16, MINK (Homo sapiens, UniProt Q8N4C8)
T16 construct: purchased Reaction Biology Corp
Protocol: as §1

[17] = target: T17, GRK3 (Homo sapiens, UniProt P35626)
T17 construct: purchased Reaction Biology Corp
Protocol: as §1

[18] = target: T18, PHKg1 (Homo sapiens, UniProt Q16816)
T18 construct: purchased Reaction Biology Corp
Protocol: as §1

[19] = target: T19, WNK3 (Homo sapiens, UniProt Q9BYP7)
T19 construct: purchased Reaction Biology Corp
Protocol: as §1

[20] = target: T20, EPHB1 (Homo sapiens, UniProt P54762)
T20 construct: purchased Reaction Biology Corp
Protocol: as §1

[21] = target: T21, FGFR4 (Homo sapiens, UniProt P22455)
T21 construct: purchased Reaction Biology Corp
Protocol: as §1

[22] = target: T22, PDGFRb (Homo sapiens, UniProt P09619)
T22 construct: purchased Reaction Biology Corp
T22 sequence (P09619 33-1106): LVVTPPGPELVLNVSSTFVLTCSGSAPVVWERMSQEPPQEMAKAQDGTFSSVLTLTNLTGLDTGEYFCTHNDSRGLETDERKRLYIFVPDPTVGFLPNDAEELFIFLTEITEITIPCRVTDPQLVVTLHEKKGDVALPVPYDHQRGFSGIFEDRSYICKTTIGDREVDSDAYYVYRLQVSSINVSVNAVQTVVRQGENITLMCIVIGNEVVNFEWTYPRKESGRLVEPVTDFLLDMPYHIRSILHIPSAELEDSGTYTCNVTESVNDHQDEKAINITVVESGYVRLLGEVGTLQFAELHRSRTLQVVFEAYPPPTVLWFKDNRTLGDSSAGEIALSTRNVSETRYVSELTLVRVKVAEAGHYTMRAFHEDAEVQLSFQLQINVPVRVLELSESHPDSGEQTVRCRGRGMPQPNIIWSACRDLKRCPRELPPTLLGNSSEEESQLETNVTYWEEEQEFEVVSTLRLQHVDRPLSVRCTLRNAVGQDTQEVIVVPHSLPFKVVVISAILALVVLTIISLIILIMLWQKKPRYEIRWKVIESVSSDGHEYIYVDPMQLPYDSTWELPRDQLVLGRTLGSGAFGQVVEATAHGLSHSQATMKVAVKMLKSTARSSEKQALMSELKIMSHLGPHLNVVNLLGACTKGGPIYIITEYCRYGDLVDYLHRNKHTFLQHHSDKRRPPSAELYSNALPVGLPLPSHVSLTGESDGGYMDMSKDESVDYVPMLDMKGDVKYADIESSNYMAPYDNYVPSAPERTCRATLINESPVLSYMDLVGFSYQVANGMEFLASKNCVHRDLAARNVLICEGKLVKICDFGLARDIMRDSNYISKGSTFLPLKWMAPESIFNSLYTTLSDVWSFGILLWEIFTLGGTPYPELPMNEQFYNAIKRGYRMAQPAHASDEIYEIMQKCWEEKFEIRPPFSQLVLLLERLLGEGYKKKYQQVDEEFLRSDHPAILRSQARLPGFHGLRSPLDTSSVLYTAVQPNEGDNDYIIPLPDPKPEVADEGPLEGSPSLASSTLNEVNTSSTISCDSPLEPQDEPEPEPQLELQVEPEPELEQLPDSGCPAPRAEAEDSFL
Protocol: as §1

[23] = target: T23, CAMK1g (Homo sapiens, UniProt Q96NX5)
T23 construct: purchased Reaction Biology Corp
Protocol: as §1

[24] = target: T24, TSSK3 (Homo sapiens, UniProt Q96PN8)
T24 construct: purchased Reaction Biology Corp
Protocol: as §1

[25] = target: T25, PLK1 (Homo sapiens, UniProt P53350)
T25 construct: purchased Reaction Biology Corp
T25 sequence (P53350 whole entry): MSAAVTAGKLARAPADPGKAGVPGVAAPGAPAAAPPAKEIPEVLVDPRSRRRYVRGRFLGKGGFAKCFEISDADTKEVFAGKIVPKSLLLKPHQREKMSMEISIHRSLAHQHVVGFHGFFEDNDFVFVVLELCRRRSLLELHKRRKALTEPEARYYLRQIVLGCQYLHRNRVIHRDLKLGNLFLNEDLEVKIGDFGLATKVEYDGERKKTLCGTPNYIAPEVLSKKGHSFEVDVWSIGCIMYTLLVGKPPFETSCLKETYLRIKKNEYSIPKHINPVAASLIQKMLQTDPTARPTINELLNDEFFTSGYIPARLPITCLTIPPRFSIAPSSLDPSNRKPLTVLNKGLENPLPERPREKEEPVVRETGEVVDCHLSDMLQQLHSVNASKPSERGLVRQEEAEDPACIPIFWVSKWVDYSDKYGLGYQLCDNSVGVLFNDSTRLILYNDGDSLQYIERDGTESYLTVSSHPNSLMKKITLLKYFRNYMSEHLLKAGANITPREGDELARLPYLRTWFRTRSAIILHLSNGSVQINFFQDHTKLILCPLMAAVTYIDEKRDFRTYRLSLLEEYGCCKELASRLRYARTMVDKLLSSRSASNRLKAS
Protocol: as §1

[26] = target: T26, CSNK1G2 (Homo sapiens, UniProt P78368)
T26 construct: purchased Reaction Biology Corp
Protocol: as §1

[27] = target: T27, P38-gamma (Homo sapiens, UniProt P53778)
T27 construct: purchased Reaction Biology Corp
T27 sequence (P53778 whole entry): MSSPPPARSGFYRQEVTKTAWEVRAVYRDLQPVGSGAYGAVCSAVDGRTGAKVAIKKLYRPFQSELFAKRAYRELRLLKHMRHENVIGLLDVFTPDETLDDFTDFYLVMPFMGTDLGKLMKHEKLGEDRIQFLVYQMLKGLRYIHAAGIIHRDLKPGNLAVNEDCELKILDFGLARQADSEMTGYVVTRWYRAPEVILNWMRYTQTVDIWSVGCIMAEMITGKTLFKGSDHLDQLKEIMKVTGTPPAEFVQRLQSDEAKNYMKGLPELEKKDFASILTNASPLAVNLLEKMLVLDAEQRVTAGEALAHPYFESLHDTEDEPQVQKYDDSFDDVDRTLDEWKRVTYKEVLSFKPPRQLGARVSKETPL
Protocol: as §1

[28] = target: T28, CSNK1A1 (Homo sapiens, UniProt P48729)
T28 construct: purchased Reaction Biology Corp
T28 sequence (P48729 whole entry): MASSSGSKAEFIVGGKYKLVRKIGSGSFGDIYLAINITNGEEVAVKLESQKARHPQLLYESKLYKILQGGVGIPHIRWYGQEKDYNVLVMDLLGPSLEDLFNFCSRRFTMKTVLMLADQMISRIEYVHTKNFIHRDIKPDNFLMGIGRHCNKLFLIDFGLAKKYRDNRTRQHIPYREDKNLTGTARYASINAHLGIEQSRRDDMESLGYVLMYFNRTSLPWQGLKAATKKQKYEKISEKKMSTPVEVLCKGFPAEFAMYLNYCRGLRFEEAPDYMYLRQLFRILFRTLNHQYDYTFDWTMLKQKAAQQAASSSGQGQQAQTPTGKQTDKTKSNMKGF
Protocol: as §1

[29] = target: T29, RAF1 (Homo sapiens, UniProt P04049)
T29 construct: purchased Reaction Biology Corp
Protocol: as §1

[30] = target: T30, MST1R (Homo sapiens, UniProt Q04912)
T30 construct: purchased Reaction Biology Corp
Protocol: as §1

[31] = target: T31, AurkC (Homo sapiens, UniProt Q9UQB9)
T31 construct: purchased Reaction Biology Corp
Protocol: as §1

[32] = target: T32, CHEK2 (Homo sapiens, UniProt O96017)
T32 construct: purchased Reaction Biology Corp
Protocol: as §1

[33] = target: T33, MAPKAPK3 (Homo sapiens, UniProt Q16644)
T33 construct: purchased Reaction Biology Corp
Protocol: as §1

[34] = target: T34, CLK4 (Homo sapiens, UniProt Q9HAZ1)
T34 construct: purchased Reaction Biology Corp
Protocol: as §1

[35] = target: T35, ICK (Homo sapiens, UniProt Q9UPZ9)
T35 construct: purchased Reaction Biology Corp
Protocol: as §1

[36] = target: T36, LYN B (Homo sapiens, UniProt P07948)
T36 construct: purchased Reaction Biology Corp
Protocol: as §1

[37] = target: T37, TYRO3 (Homo sapiens, UniProt Q06418)
T37 construct: purchased Reaction Biology Corp
Protocol: as §1

[38] = target: T38, PRKD3 (Homo sapiens, UniProt O94806)
T38 construct: purchased Reaction Biology Corp
Protocol: as §1

[39] = target: T39, P38-delta (Homo sapiens, UniProt O15264)
T39 construct: purchased Reaction Biology Corp
Protocol: as §1

[40] = target: T40, PDGFRa (Homo sapiens, UniProt P16234)
T40 construct: purchased Reaction Biology Corp
T40 sequence (P16234 24-1089): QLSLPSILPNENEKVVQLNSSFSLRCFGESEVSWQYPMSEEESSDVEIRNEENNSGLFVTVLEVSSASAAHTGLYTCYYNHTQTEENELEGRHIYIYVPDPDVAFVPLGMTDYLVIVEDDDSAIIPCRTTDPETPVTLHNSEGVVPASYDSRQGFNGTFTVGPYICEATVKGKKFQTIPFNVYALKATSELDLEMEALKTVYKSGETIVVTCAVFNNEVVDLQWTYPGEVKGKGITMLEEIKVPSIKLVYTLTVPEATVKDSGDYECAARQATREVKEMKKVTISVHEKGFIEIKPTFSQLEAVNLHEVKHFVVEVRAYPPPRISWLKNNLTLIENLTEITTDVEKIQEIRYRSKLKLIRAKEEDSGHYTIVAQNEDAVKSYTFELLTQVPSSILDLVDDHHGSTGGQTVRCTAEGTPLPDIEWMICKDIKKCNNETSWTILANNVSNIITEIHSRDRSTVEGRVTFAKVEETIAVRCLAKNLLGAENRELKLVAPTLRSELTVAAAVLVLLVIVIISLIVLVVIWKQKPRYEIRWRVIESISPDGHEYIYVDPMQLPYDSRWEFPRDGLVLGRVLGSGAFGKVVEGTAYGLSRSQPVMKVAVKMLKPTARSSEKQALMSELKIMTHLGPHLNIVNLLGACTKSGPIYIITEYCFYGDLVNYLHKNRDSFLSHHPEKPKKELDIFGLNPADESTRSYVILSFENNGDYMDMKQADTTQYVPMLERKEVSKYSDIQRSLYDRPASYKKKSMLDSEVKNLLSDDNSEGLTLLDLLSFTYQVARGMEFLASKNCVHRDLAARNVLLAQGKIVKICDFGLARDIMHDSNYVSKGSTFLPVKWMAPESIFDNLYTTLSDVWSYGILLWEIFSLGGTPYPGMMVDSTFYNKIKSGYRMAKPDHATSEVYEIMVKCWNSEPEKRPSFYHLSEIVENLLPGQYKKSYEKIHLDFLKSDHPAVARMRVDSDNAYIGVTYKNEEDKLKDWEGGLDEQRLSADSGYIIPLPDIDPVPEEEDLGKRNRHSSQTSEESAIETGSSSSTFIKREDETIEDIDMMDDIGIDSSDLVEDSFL
Protocol: as §1

[41] = target: T41, ABL2 (Homo sapiens, UniProt P42684)
T41 construct: purchased Reaction Biology Corp
Protocol: as §1

[42] = target: T42, MEK1 (Homo sapiens, UniProt Q02750)
T42 construct: purchased Reaction Biology Corp
T42 sequence (Q02750 whole entry): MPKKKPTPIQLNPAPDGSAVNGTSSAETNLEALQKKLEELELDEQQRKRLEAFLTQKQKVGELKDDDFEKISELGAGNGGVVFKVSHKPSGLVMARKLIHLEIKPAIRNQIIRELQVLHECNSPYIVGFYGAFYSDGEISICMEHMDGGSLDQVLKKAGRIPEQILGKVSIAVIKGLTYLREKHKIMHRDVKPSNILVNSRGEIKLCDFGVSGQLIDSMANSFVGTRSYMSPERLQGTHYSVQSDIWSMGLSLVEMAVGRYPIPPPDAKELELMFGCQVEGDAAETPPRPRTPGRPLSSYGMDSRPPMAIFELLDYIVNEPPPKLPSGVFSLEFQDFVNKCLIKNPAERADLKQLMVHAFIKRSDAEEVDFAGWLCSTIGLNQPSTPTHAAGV
Protocol: as §1

[43] = target: T43, LATS1 (Homo sapiens, UniProt O95835)
T43 construct: purchased Reaction Biology Corp
T43 sequence (O95835 whole entry): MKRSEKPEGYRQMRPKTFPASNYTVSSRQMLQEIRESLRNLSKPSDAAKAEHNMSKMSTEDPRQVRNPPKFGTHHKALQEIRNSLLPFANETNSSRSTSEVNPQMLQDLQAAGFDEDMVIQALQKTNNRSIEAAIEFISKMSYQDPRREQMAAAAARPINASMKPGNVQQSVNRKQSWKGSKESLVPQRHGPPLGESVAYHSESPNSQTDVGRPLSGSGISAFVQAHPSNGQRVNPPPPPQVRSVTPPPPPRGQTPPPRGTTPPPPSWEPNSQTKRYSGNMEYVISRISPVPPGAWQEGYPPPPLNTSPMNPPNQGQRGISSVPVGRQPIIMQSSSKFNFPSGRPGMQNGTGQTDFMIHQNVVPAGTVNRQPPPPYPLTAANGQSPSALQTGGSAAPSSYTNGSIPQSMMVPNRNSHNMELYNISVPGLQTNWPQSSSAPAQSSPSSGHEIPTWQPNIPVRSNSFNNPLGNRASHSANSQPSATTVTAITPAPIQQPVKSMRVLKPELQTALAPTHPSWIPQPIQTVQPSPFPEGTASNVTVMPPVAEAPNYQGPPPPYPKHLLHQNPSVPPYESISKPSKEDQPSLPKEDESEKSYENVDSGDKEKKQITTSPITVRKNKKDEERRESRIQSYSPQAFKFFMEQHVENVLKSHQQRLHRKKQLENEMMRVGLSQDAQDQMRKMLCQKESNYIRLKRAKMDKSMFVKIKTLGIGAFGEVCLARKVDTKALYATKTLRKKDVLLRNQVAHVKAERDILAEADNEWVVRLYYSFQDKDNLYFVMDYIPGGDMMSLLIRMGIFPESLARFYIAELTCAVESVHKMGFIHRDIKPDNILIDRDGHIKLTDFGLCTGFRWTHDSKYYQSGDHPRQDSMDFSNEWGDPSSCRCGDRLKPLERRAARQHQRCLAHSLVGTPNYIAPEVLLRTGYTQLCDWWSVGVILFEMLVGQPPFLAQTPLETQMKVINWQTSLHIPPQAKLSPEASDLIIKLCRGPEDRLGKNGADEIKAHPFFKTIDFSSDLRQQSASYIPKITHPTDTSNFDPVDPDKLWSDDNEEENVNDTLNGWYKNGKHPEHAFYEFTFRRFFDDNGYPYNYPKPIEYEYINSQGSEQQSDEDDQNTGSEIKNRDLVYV
Protocol: as §1

[44] = target: T44, ERBB4 (Homo sapiens, UniProt Q15303)
T44 construct: purchased Reaction Biology Corp
Protocol: as §1

CCn1cnc2c(NCc3ccc(-c4ccccn4)nc3)nc(-c3ccc(N)nc3)nc21 [Compound 30d, N-([2,2′-Bipyridin]-5-ylmethyl)-2-(6-aminopyridin-3-yl)-9-ethyl-9H-purin-6-amine]
remaining activity at 10 µM [1]: 76.5% | remaining activity at 10 µM [2]: 90.7% | remaining activity at 10 µM [3]: 57.6% | remaining activity at 10 µM [4]: 79.4% | remaining activity at 10 µM [5]: 94.9% | remaining activity at 10 µM [6]: 55% | remaining activity at 10 µM [7]: 85.7% | remaining activity at 10 µM [8]: 80.1% | remaining activity at 10 µM [9]: 50.8% | remaining activity at 10 µM [10]: 109% | remaining activity at 10 µM [11]: 93.1% | remaining activity at 10 µM [12]: 35.4% | remaining activity at 10 µM [13]: 60.7% | remaining activity at 10 µM [14]: 58% | remaining activity at 10 µM [15]: 77.4% | remaining activity at 10 µM [16]: 101% | remaining activity at 10 µM [17]: 102% | remaining activity at 10 µM [18]: 16.5% | remaining activity at 10 µM [19]: 74.5% | remaining activity at 10 µM [20]: 13.6% | remaining activity at 10 µM [21]: 87.4% | remaining activity at 10 µM [22]: 34.7% | remaining activity at 10 µM [23]: 54.3% | remaining activity at 10 µM [24]: 91.5% | remaining activity at 10 µM [25]: 68.3% | remaining activity at 10 µM [26]: 27% | remaining activity at 10 µM [27]: 118% | remaining activity at 10 µM [28]: 26.5% | remaining activity at 10 µM [29]: 68.6% | remaining activity at 10 µM [30]: 86.8% | remaining activity at 10 µM [31]: 25.5% | remaining activity at 10 µM [32]: 7.4% | remaining activity at 10 µM [33]: 100% | remaining activity at 10 µM [34]: 28.7% | remaining activity at 10 µM [35]: 39.6% | remaining activity at 10 µM [36]: 54.4% | remaining activity at 10 µM [37]: 22.4% | remaining activity at 10 µM [38]: 54.3% | remaining activity at 10 µM [39]: 102% | remaining activity at 10 µM [40]: 52.8% | remaining activity at 10 µM [41]: 56.1% | remaining activity at 10 µM [42]: 149% | remaining activity at 10 µM [43]: 85% | remaining activity at 10 µM [44]: 73%
